How the values were obtained:
Test in all cases: relative viability (nuclei count vs DMSO), 5 days (fraction); higher = more cells survive
[1] = compound: Cc1ccc2nc(NCCN)c3ncc(C)n3c2c1 + COc1cc2c(Oc3ccc(NC(=O)C4(C(=O)Nc5ccc(F)cc5)CC4)cc3F)ccnc2cc1OCCCN1CCOCC1 [Foretinib] (partner 0.25 µM)
In short: (§1)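 Cells from lung cancer lines were seeded into 1536-well plates and, one day later, dosed by pin tool. Treatments were either a single drug or a fixed dose of an anchor drug with five library-drug doses (not always all listed) in √10 steps. After 5 days, nuclei were stained in a one-step fixation (final 0.05% Triton X-100, 1% formaldehyde, 1 ug/ml Hoechst) and counted on 4× images, and relative viability is the treated-to-vehicle nuclei ratio, as the median of duplicate plates.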

Salubrinal + OSI-027 = compound: O=C(/C=C/c1ccccc1)NC(NC(=S)Nc1cccc2cccnc12)C(Cl)(Cl)Cl [Salubrinal] + COc1cccc2cc(-c3nc([C@H]4CC[C@H](C(=O)O)CC4)n4ncnc(N)c34)[nH]c12 [OSI-027] (partner 0.5 µM)
In short: as §1

Salubrinal + Pemetrexed = compound: O=C(/C=C/c1ccccc1)NC(NC(=S)Nc1cccc2cccnc12)C(Cl)(Cl)Cl [Salubrinal] + Nc1nc2[nH]cc(CCc3ccc(C(=O)N[C@@H](CCC(=O)O)C(=O)O)cc3)c2c(=O)[nH]1 [Pemetrexed] (partner 0.2 µM)
In short: as §1

Salubrinal + Lapatinib = compound: O=C(/C=C/c1ccccc1)NC(NC(=S)Nc1cccc2cccnc12)C(Cl)(Cl)Cl [Salubrinal] + CS(=O)(=O)CCNCc1ccc(-c2ccc3ncnc(Nc4ccc(OCc5cccc(F)c5)c(Cl)c4)c3c2)o1 [Lapatinib] (partner 2 µM)
In short: as §1

NCI-H2347
relative viability ([1]; first compound 0.04 µM): 1.2
relative viability ([1]; first compound 0.1265 µM): 0.741
relative viability ([1]; first compound 0.4 µM): 1.02
relative viability ([1]; first compound 1.265 µM): 0.869
relative viability ([1]; first compound 4 µM): 0.792
relative viability (Salubrinal + OSI-027; first compound 0.08 µM): 0.289
relative viability (Salubrinal + OSI-027; first compound 0.253 µM): 0.308
relative viability (Salubrinal + OSI-027; first compound 0.8 µM): 0.379
relative viability (Salubrinal + OSI-027; first compound 2.53 µM): 0.349
relative viability (Salubrinal + OSI-027; first compound 8 µM): 0.422
relative viability (Salubrinal + Pemetrexed; first compound 0.08 µM): 0.43
relative viability (Salubrinal + Pemetrexed; first compound 0.253 µM): 0.43
relative viability (Salubrinal + Pemetrexed; first compound 0.8 µM): 0.423
relative viability (Salubrinal + Pemetrexed; first compound 2.53 µM): 0.452
relative viability (Salubrinal + Pemetrexed; first compound 8 µM): 0.529
relative viability (Salubrinal + Lapatinib; first compound 0.08 µM): 0.736
relative viability (Salubrinal + Lapatinib; first compound 0.253 µM): 0.903
relative viability (Salubrinal + Lapatinib; first compound 0.8 µM): 0.967
relative viability (Salubrinal + Lapatinib; first compound 2.53 µM): 0.923
relative viability (Salubrinal + Lapatinib; first compound 8 µM): 0.891

NCI-H2405
relative viability ([1]; first compound 0.04 µM): 1.05
relative viability ([1]; first compound 0.1265 µM): 1.04
relative viability ([1]; first compound 0.4 µM): 1.05
relative viability ([1]; first compound 1.265 µM): 0.978
relative viability ([1]; first compound 4 µM): 0.986
relative viability (Salubrinal + OSI-027; first compound 0.08 µM): 0.614
relative viability (Salubrinal + OSI-027; first compound 0.253 µM): 0.643
relative viability (Salubrinal + OSI-027; first compound 0.8 µM): 0.664
relative viability (Salubrinal + OSI-027; first compound 2.53 µM): 0.637
relative viability (Salubrinal + OSI-027; first compound 8 µM): 0.599
relative viability (Salubrinal + Pemetrexed; first compound 0.08 µM): 1.01
relative viability (Salubrinal + Pemetrexed; first compound 0.253 µM): 1.16
relative viability (Salubrinal + Pemetrexed; first compound 0.8 µM): 1.17
relative viability (Salubrinal + Pemetrexed; first compound 2.53 µM): 1.05
relative viability (Salubrinal + Pemetrexed; first compound 8 µM): 1.07
relative viability (Salubrinal + Lapatinib; first compound 0.08 µM): 1.01
relative viability (Salubrinal + Lapatinib; first compound 0.253 µM): 1.03
relative viability (Salubrinal + Lapatinib; first compound 0.8 µM): 1.13
relative viability (Salubrinal + Lapatinib; first compound 2.53 µM): 1.07
relative viability (Salubrinal + Lapatinib; first compound 8 µM): 1.09

NCI-H3122
relative viability ([1]; first compound 0.04 µM): 0.928
relative viability ([1]; first compound 0.1265 µM): 0.981
relative viability ([1]; first compound 0.4 µM): 0.924
relative viability ([1]; first compound 1.265 µM): 1.07
relative viability ([1]; first compound 4 µM): 0.875
relative viability (Salubrinal + OSI-027; first compound 0.08 µM): 1.21
relative viability (Salubrinal + OSI-027; first compound 0.253 µM): 0.885
relative viability (Salubrinal + OSI-027; first compound 0.8 µM): 1.32
relative viability (Salubrinal + OSI-027; first compound 2.53 µM): 1.03
relative viability (Salubrinal + OSI-027; first compound 8 µM): 1.07
relative viability (Salubrinal + Pemetrexed; first compound 0.08 µM): 0.198
relative viability (Salubrinal + Pemetrexed; first compound 0.253 µM): 0.181
relative viability (Salubrinal + Pemetrexed; first compound 0.8 µM): 0.204
relative viability (Salubrinal + Pemetrexed; first compound 2.53 µM): 0.198
relative viability (Salubrinal + Pemetrexed; first compound 8 µM): 0.195
relative viability (Salubrinal + Lapatinib; first compound 0.08 µM): 1.12
relative viability (Salubrinal + Lapatinib; first compound 0.253 µM): 1.02
relative viability (Salubrinal + Lapatinib; first compound 0.8 µM): 1.04
relative viability (Salubrinal + Lapatinib; first compound 2.53 µM): 1.1
relative viability (Salubrinal + Lapatinib; first compound 8 µM): 0.959

PC-3 [JPC-3]
relative viability ([1]; first compound 0.04 µM): 1.1
relative viability ([1]; first compound 0.1265 µM): 1.04
relative viability ([1]; first compound 0.4 µM): 0.934
relative viability ([1]; first compound 1.265 µM): 0.986
relative viability ([1]; first compound 4 µM): 1.09
relative viability (Salubrinal + OSI-027; first compound 0.08 µM): 0.7
relative viability (Salubrinal + OSI-027; first compound 0.253 µM): 0.538
relative viability (Salubrinal + OSI-027; first compound 0.8 µM): 0.751
relative viability (Salubrinal + OSI-027; first compound 2.53 µM): 0.913
relative viability (Salubrinal + OSI-027; first compound 8 µM): 0.729
relative viability (Salubrinal + Pemetrexed; first compound 0.08 µM): 0.879
relative viability (Salubrinal + Pemetrexed; first compound 0.253 µM): 0.919
relative viability (Salubrinal + Pemetrexed; first compound 0.8 µM): 1.49
relative viability (Salubrinal + Pemetrexed; first compound 2.53 µM): 1.02
relative viability (Salubrinal + Pemetrexed; first compound 8 µM): 1.04
relative viability (Salubrinal + Lapatinib; first compound 0.08 µM): 0.436
relative viability (Salubrinal + Lapatinib; first compound 0.253 µM): 0.423
relative viability (Salubrinal + Lapatinib; first compound 0.8 µM): 0.459
relative viability (Salubrinal + Lapatinib; first compound 2.53 µM): 0.484
relative viability (Salubrinal + Lapatinib; first compound 8 µM): 0.472

PC-14
relative viability ([1]; first compound 0.04 µM): 0.944
relative viability ([1]; first compound 0.1265 µM): 0.908
relative viability ([1]; first compound 0.4 µM): 0.984
relative viability ([1]; first compound 1.265 µM): 0.933
relative viability ([1]; first compound 4 µM): 0.943
relative viability (Salubrinal + OSI-027; first compound 0.08 µM): 0.966
relative viability (Salubrinal + OSI-027; first compound 0.253 µM): 0.822
relative viability (Salubrinal + OSI-027; first compound 0.8 µM): 0.98
relative viability (Salubrinal + OSI-027; first compound 2.53 µM): 0.798
relative viability (Salubrinal + OSI-027; first compound 8 µM): 0.616
relative viability (Salubrinal + Pemetrexed; first compound 0.08 µM): 0.114
relative viability (Salubrinal + Pemetrexed; first compound 0.253 µM): 0.154
relative viability (Salubrinal + Pemetrexed; first compound 0.8 µM): 0.147
relative viability (Salubrinal + Pemetrexed; first compound 2.53 µM): 0.124
relative viability (Salubrinal + Pemetrexed; first compound 8 µM): 0.108
relative viability (Salubrinal + Lapatinib; first compound 0.08 µM): 0.412
relative viability (Salubrinal + Lapatinib; first compound 0.253 µM): 0.347
relative viability (Salubrinal + Lapatinib; first compound 0.8 µM): 0.331
relative viability (Salubrinal + Lapatinib; first compound 2.53 µM): 0.29
relative viability (Salubrinal + Lapatinib; first compound 8 µM): 0.382

RERF-LC-KJ
relative viability ([1]; first compound 0.04 µM): 0.911
relative viability ([1]; first compound 0.1265 µM): 0.845
relative viability ([1]; first compound 0.4 µM): 0.851
relative viability ([1]; first compound 1.265 µM): 0.796
relative viability ([1]; first compound 4 µM): 0.828
relative viability (Salubrinal + OSI-027; first compound 0.08 µM): 0.595
relative viability (Salubrinal + OSI-027; first compound 0.253 µM): 0.512
relative viability (Salubrinal + OSI-027; first compound 0.8 µM): 0.58
relative viability (Salubrinal + OSI-027; first compound 2.53 µM): 0.548
relative viability (Salubrinal + OSI-027; first compound 8 µM): 0.437
relative viability (Salubrinal + Pemetrexed; first compound 0.08 µM): 0.458
relative viability (Salubrinal + Pemetrexed; first compound 0.253 µM): 0.496
relative viability (Salubrinal + Pemetrexed; first compound 0.8 µM): 0.501
relative viability (Salubrinal + Pemetrexed; first compound 2.53 µM): 0.446
relative viability (Salubrinal + Pemetrexed; first compound 8 µM): 0.415
relative viability (Salubrinal + Lapatinib; first compound 0.08 µM): 0.871
relative viability (Salubrinal + Lapatinib; first compound 0.253 µM): 0.75
relative viability (Salubrinal + Lapatinib; first compound 0.8 µM): 0.837
relative viability (Salubrinal + Lapatinib; first compound 2.53 µM): 0.828
relative viability (Salubrinal + Lapatinib; first compound 8 µM): 0.822

SK-LU-1
relative viability ([1]; first compound 0.04 µM): 0.824
relative viability ([1]; first compound 0.1265 µM): 0.836
relative viability ([1]; first compound 0.4 µM): 0.9
relative viability ([1]; first compound 1.265 µM): 0.791
relative viability ([1]; first compound 4 µM): 0.781
relative viability (Salubrinal + OSI-027; first compound 0.08 µM): 0.399
relative viability (Salubrinal + OSI-027; first compound 0.253 µM): 0.286
relative viability (Salubrinal + OSI-027; first compound 0.8 µM): 0.311
relative viability (Salubrinal + OSI-027; first compound 2.53 µM): 0.358
relative viability (Salubrinal + OSI-027; first compound 8 µM): 0.267
relative viability (Salubrinal + Pemetrexed; first compound 0.08 µM): 0.994
relative viability (Salubrinal + Pemetrexed; first compound 0.253 µM): 0.721
relative viability (Salubrinal + Pemetrexed; first compound 0.8 µM): 1.02
relative viability (Salubrinal + Pemetrexed; first compound 2.53 µM): 0.886
relative viability (Salubrinal + Pemetrexed; first compound 8 µM): 0.94
relative viability (Salubrinal + Lapatinib; first compound 0.08 µM): 0.972
relative viability (Salubrinal + Lapatinib; first compound 0.253 µM): 0.874
relative viability (Salubrinal + Lapatinib; first compound 0.8 µM): 0.899
relative viability (Salubrinal + Lapatinib; first compound 2.53 µM): 0.926
relative viability (Salubrinal + Lapatinib; first compound 8 µM): 0.703

SK-MES-1
relative viability ([1]; first compound 0.04 µM): 1.04
relative viability ([1]; first compound 0.1265 µM): 0.91
relative viability ([1]; first compound 0.4 µM): 1.01
relative viability ([1]; first compound 1.265 µM): 0.853
relative viability ([1]; first compound 4 µM): 0.875
relative viability (Salubrinal + OSI-027; first compound 0.08 µM): 0.623
relative viability (Salubrinal + OSI-027; first compound 0.253 µM): 0.629
relative viability (Salubrinal + OSI-027; first compound 0.8 µM): 0.675
relative viability (Salubrinal + OSI-027; first compound 2.53 µM): 0.448
relative viability (Salubrinal + OSI-027; first compound 8 µM): 0.445
relative viability (Salubrinal + Pemetrexed; first compound 0.08 µM): 0.993
relative viability (Salubrinal + Pemetrexed; first compound 0.253 µM): 0.784
relative viability (Salubrinal + Pemetrexed; first compound 0.8 µM): 1.11
relative viability (Salubrinal + Pemetrexed; first compound 2.53 µM): 0.896
relative viability (Salubrinal + Pemetrexed; first compound 8 µM): 0.914
relative viability (Salubrinal + Lapatinib; first compound 0.08 µM): 0.488
relative viability (Salubrinal + Lapatinib; first compound 0.253 µM): 0.405
relative viability (Salubrinal + Lapatinib; first compound 0.8 µM): 0.499
relative viability (Salubrinal + Lapatinib; first compound 2.53 µM): 0.42
relative viability (Salubrinal + Lapatinib; first compound 8 µM): 0.437

SW 1573
relative viability ([1]; first compound 0.04 µM): 1.02
relative viability ([1]; first compound 0.1265 µM): 0.966
relative viability ([1]; first compound 0.4 µM): 1.09
relative viability ([1]; first compound 1.265 µM): 0.945
relative viability ([1]; first compound 4 µM): 0.859
relative viability (Salubrinal + OSI-027; first compound 0.08 µM): 0.763
relative viability (Salubrinal + OSI-027; first compound 0.253 µM): 0.622
relative viability (Salubrinal + OSI-027; first compound 0.8 µM): 0.589
relative viability (Salubrinal + OSI-027; first compound 2.53 µM): 0.565
relative viability (Salubrinal + OSI-027; first compound 8 µM): 0.493
relative viability (Salubrinal + Pemetrexed; first compound 0.08 µM): 0.952
relative viability (Salubrinal + Pemetrexed; first compound 0.253 µM): 0.586
relative viability (Salubrinal + Pemetrexed; first compound 0.8 µM): 0.941
relative viability (Salubrinal + Pemetrexed; first compound 2.53 µM): 0.69
relative viability (Salubrinal + Pemetrexed; first compound 8 µM): 0.742
relative viability (Salubrinal + Lapatinib; first compound 0.08 µM): 1.02
relative viability (Salubrinal + Lapatinib; first compound 0.253 µM): 1.14
relative viability (Salubrinal + Lapatinib; first compound 0.8 µM): 1.09
relative viability (Salubrinal + Lapatinib; first compound 2.53 µM): 1.11
relative viability (Salubrinal + Lapatinib; first compound 8 µM): 1.16

— the supplement of paper PMC10307832
